Measured values taken from patent publication US9630922B2, “3-spiro-7-hydroxamic acid tetralins as HDAC inhibitors” (Forma Therapeutics, Inc., priority 2015, dated 2017).

What follows are compounds tested against T1, HDAC6 (Homo sapiens, UniProt Q9UBN7) (assay: In vitro Histone Deacetylase Assay (enzymatic HDAC6 electrophoretic mobility shift assay)). Conditions: full length human recombinant HDAC6, 1 nM enzyme, 2 μM peptide substrate RHKK(Ac)-NH2, 25° C.; read-out: HDAC6 activity range.
T1 construct: Full length human recombinant HDAC6 protein was expressed in baculoviral system; made in house; host or cells: baculoviral system
T1 sequence (Q9UBN7 1-1215): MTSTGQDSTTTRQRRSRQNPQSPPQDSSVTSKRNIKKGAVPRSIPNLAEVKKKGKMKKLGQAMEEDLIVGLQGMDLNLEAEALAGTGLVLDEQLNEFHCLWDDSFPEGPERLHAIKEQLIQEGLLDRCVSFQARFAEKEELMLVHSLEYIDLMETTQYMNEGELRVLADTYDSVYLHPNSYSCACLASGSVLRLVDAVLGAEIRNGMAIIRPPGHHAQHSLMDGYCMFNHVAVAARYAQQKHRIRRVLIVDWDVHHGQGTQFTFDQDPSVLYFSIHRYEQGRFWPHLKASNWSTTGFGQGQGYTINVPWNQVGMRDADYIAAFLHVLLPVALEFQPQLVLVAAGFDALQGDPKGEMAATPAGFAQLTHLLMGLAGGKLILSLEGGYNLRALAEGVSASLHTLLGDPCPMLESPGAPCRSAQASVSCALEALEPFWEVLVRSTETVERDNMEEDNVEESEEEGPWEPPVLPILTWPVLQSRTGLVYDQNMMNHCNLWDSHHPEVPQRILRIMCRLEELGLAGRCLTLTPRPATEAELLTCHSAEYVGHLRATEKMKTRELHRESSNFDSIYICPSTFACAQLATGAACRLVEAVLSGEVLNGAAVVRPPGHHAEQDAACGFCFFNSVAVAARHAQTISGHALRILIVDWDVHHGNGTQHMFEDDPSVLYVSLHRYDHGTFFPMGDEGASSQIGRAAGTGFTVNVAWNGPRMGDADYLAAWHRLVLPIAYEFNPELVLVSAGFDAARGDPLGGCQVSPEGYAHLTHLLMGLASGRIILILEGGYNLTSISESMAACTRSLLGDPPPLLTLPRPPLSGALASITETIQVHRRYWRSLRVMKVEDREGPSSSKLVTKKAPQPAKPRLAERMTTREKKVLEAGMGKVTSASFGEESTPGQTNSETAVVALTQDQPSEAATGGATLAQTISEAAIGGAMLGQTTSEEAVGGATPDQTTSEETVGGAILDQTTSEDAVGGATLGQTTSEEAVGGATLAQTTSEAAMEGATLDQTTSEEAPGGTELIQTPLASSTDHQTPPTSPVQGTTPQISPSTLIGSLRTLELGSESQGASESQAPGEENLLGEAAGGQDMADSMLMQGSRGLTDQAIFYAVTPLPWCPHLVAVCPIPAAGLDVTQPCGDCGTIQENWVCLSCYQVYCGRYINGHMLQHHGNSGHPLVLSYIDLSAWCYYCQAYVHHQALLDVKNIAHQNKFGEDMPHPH
Type: biochemical
Summary of the method: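 Full-length recombinant human HDAC6 (baculovirus-expressed, 1 nM) was incubated at 25 °C with 2 μM fluorescent RHKK(Ac)-NH2 peptide in HEPES pH 7.5, KCl, BSA, Triton X-100 and 1% DMSO, then SDS-quenched. Substrate and product were separated by microfluidic mobility shift, and IC50 came from 4-parameter fits of 12-point, 3-fold dilution curves.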

`Cn1cc(N2CC[C@@]3(CCc4cc(C(=O)NO)ccc4C3)C2=O)cn1` [Compound I-170, (S)-N-hydroxy-1′-(1-methyl-1H-pyrazol-4-yl)-2′-oxo-3,4-dihydro-1H-spiro[naphthalene-2,3-pyrrolidine]-6-carboxamide] and `O=C(NO)c1ccc2c(c1)CC[C@@]1(CCN(c3cccc(F)c3)C1=O)C2` [Compound I-117, (S)-1′-(3-fluorophenyl)-N-hydroxy-2′-oxo-3,4-dihydro-1H-spiro[naphthalene-2,3′-pyrrolidine]-6-carboxamide] cannot be ordered by IC50: no more than 100 nM for the first, no more than 100 nM for the second.

Compared with `COc1ccc(CN2CCC3(CCc4cc(C(=O)NO)ccc4O3)CC2)cc1` [II-1, N-hydroxy-1′-(4-methoxybenzyl)spiro[chromane-2,4′-piperidine]-6-carboxamide], `COc1ccc(N2CC[C@@]3(CCc4cc(C(=O)NO)ccc4C3)C2=O)c(F)c1` [Compound I-127, (2S)-1′-(2-fluoro-4-methoxyphenyl)-N-hydroxy-2′-oxo-3,4-dihydro-1H-spiro[naphthalene-2,3′-pyrrolidine]-6-carboxamide] is lower in IC50: greater than 500 nM for the first, no more than 100 nM for the second.

`O=C(NO)c1ccc2c(c1)CC[C@]1(CCN(C3CC3)C1=O)C2` [Compound I-109, (R)-1′-cyclopropyl-N-hydroxy-2′-oxo-3,4-dihydro-1H-spiro[naphthalene-2,3′-pyrrolidine]-6-carboxamide] and `O=C(NO)c1ccc2c(c1)CC[C@@]1(CCCN(C3CCC3)C1=O)C2` (single isomer, unassigned) [Compound I-197] cannot be ordered by IC50: no more than 100 nM for the first, no more than 100 nM for the second.

`COCCCN1CC2(CCc3cc(C(=O)NO)ccc3C2)CC1=O` (single isomer, unassigned) [Compound I-219] and `CC(C)N1CC2(CCc3cc(C(=O)NO)ccc3C2)CC1=O` (single isomer, unassigned) [Compound I-208] cannot be ordered by IC50: no more than 100 nM for the first, no more than 100 nM for the second.

`N#Cc1ccc(N2CC[C@@]3(CCc4cc(C(=O)NO)ccc4C3)C2=O)cc1` [Compound I-173, (S)-1′-(4-cyanophenyl)-N-hydroxy-2′-oxo-3,4-dihydro-1H-spiro[naphthalene-2,3′-pyrrolidine]-6-carboxamide] and `O=C(NO)c1ccc2c(c1)CC[C@@]1(CCN(Cc3ccccc3C(F)(F)F)C1=O)C2` [Compound I-67, (S)-N-hydroxy-2′-oxo-1′-(2-(trifluoromethyl)benzyl)-3,4-dihydro-1H-spiro[naphthalene-2,3′-pyrrolidine]-6-carboxamide] cannot be ordered by IC50: no more than 100 nM for the first, 100 to 500 nM for the second.

`O=C(NO)c1ccc2c(c1)CC[C@]1(CCN(CC(F)(F)F)C1=O)C2` [Compound I-165, (R)-N-hydroxy-2′-oxo-1′-(2,2,2-trifluoroethyl)-3,4-dihydro-1H-spiro[naphthalene-2,3′-pyrrolidine]-6-carboxamide] and `CC(C)CN1CC[C@@]2(CCc3cc(C(=O)NO)ccc3C2)C1=O` [Compound I-160, (S)-N-hydroxy-1′-isobutyl-2′-oxo-3,4-dihydro-1H-spiro[naphthalene-2,3′-pyrrolidine]-6-carboxamide] cannot be ordered by IC50: no more than 100 nM for the first, 100 to 500 nM for the second.

`CC(C)CCN1CC[C@@]2(CCc3cc(C(=O)NO)ccc3C2)C1=O` [Compound I-62, (S)-N-hydroxy-1′-isopentyl-2′-oxo-3,4-dihydro-1H-spiro[naphthalene-2,3′-pyrrolidine]-6-carboxamide] and `COCCN1CC[C@@]2(CCc3cc(C(=O)NO)ccc3C2)C1=O` [Compound I-64, (S)-N-hydroxy-1′-(2-methoxyethyl)-2′-oxo-3,4-dihydro-1H-spiro[naphthalene-2,3′-pyrrolidine]-6-carboxamide] fall in the same range of IC50: 100 to 500 nM for the first, 100 to 500 nM for the second.

`O=C(NO)c1ccc2c(c1)CC[C@]1(CCN(Cc3cnc(O)s3)C1=O)C2` [Compound I-31, (R)-N-hydroxy-1′-((2-hydroxythiazol-5-yl)methyl)-2′-oxo-3,4-dihydro-1H-spiro[naphthalene-2,3′-pyrrolidine]-6-carboxamide] and `O=C(NO)c1ccc2c(c1)CC[C@@]1(CCN(CC(=O)N3CCOCC3)C1=O)C2` [Compound I-71, (S)-N-hydroxy-1′-(2-morpholino-2-oxoethyl)-2′-oxo-3,4-dihydro-1H-spiro[naphthalene-2,3′-pyrrolidine]-6-carboxamide] cannot be ordered by IC50: no more than 100 nM for the first, 100 to 500 nM for the second.
